In data set [1] the test system is Bacillus subtilis bacteria. Conditions: cited from earlier work.
For data set [2] the following is noted: pulping process; cited from earlier work.
The next data set has as its target aconitase enzyme (Bacillus subtilis, UniProt P09339). Conditions: concentrations of less than 1 mM; cited from earlier work.
The test system of data set [3] is Bacillus licheniformis 217 strain. Kind of data set: Example 3: sporulation of bacilli in broke, metals, DTPA and test product C. The format is cell-based. Here is the method: (§1) In this laboratory experiment, the effect of bivalent manganese and bivalent iron as well as a chelating agent (DTPA, diethylenetriaminepentaacetic acid) on the sporulation of bacilli isolated from a board machine was studied under conditions of the broke system. For the experiment, an inoculum free of spores was prepared from the Bacillus licheniformis 217 strain by carrying out three consecutive cultivations in a liquid medium for 24 hours (Tryptone-Yeast Extract Medium, +50° C., agitation at 100 rpm) using a low inoculation ratio (0.1% by volume/volume). Broke free of spores was produced by sterilizing dilute broke of the board machine. A low amount of spray starch used in the board machine was added to the broke to make up for the amount of starch consumed by bacterial activity during the transportation of the broke sample to the laboratory. The broke was divided into aliquots of 25 ml each and filled in tubes, followed by the addition of the test agents at different concentrations. 0.2% stock solutions of manganese (Mn(II)Cl2×4H2O) and iron (Fe(II)SO4×7H2O) in deionized water were sterile filtered using 0.2 μm spray filters. 25 μl of the Bacillus culture free of spores were added to each tube, followed by keeping the tubes at 45° C. (agitation at 100 rpm). The amounts of aerobic bacteria and aerobic spores in each tube were determined after different exposure times. The amount of aerobic bacteria were determined by a filtering method, whereas aerobic spores were determined from pasteurized (20 min, 80° C.) samples using the pour plate method (Plate Count Agar in both cases, 45° C., 3 d).
In this laboratory experiment, the effect of a test product C containing a dispersing agent and DTPA on sporulation of bacilli isolated from a board machine was studied under the conditions in the broke system. […]

Data set [4] has the same test system. Put plainly: Example 1: sporulation of bacilli isolated from a board machine in sterilized dilute broke with spray starch. It counts as cell-based. Here is the method: as §1, with “0.2% stock solutions of manganese (Mn(II)Cl2×4H2O) and iron (Fe(II)SO4×7H2O) in deionized water were sterile filtered using 0.2 μm spray filters. 25 μl of the Bacillus culture free of spores were added to each tube, followed by keeping the tubes at 45° C. (agitation at 100 rpm).” left out

Data set [5] concerns Bacillus subtilis bacteria. Conditions: cited from earlier work. This is another data set of the same source.

Where two headings read alike, the source gives them in different places.

Chain of aconitase enzyme (P09339 whole entry): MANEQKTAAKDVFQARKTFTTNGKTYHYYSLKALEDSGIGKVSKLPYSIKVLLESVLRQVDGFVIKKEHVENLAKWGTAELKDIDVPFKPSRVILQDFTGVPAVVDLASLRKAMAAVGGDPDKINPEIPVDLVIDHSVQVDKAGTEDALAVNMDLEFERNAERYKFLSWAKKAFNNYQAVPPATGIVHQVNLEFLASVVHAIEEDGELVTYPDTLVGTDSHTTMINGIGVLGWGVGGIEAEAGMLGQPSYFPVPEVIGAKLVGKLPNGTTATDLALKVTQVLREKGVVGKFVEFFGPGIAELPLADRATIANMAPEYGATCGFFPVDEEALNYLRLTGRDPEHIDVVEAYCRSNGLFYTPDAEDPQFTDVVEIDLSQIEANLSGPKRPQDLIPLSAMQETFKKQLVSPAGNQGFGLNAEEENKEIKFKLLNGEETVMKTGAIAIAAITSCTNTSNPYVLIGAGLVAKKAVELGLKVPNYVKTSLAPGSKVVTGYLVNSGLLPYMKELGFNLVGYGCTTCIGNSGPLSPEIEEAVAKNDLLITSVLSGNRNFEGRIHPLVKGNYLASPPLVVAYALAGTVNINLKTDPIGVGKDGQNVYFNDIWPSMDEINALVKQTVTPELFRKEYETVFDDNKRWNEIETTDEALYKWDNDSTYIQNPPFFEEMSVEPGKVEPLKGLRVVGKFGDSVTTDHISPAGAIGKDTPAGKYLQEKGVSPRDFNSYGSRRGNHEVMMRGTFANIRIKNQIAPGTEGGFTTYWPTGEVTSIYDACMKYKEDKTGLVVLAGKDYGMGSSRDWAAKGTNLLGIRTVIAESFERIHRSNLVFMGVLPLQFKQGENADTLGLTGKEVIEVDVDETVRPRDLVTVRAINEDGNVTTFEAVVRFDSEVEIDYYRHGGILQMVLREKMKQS

For the molecule `O=C(O)c1ccccn1` [alpha picolinic acid], the sporulation result in data set [1] (concentration of 0.4 mM) is given as “reduced sporulation”. Moreover, the growth entry in data set [1] (concentrations of less than 1 mM (<123 ppm)) was “not inhibited”.

For `O=P(O)(O)CN(CCN(CP(=O)(O)O)CP(=O)(O)O)CCN(CP(=O)(O)O)CP(=O)(O)O` [DTPMP, diethylenetriamine-pentakis methylenephosphonic acid], the “chelating performance for manganese” value in data set [2] was “over 95%”.

Turning to `c1ccc(-c2ccccn2)nc1` [dipyridyl], on aconitase enzyme, the aconitase enzyme inhibition entry was “inhibited”.

On to `O=C(O)CN(CCN(CC(=O)O)CC(=O)O)CCN(CC(=O)O)CC(=O)O` [DTPA, diethylenetriaminepentaacetic acid], for which the “toxicity to bacilli (amount of aerobic bacteria, FIG. 5)” value in data set [3] was “neither DTPA nor the test product C was toxic”. In addition, in data set [3] (12 ppm (as active agent)), the reduction of sporulation is recorded as 99.4% and the sporulation frequency was 0.11%. For the same molecule, the reduction of sporulation in data set [4] (12.5 ppm (as active agent)) is given as 79%. Moreover, in data set [4] (17.5 ppm), the inhibition of sporulation entry was “total inhibition”.

For `c1cnc2c(c1)ccc1cccnc12` [o-phenanthroline], on aconitase enzyme, the aconitase enzyme inhibition result is on record as “inhibited”.

In the case of `O=C(O)c1ccc2ccccc2n1` [quinaldic acid], the aconitase enzyme inhibition entry on aconitase enzyme is listed as “inhibited”.

Turning to `[Mn+2]` [manganese], the “amount of sporulating cells of the wild type strain” value in data set [5] (0.006 ppm manganese addition) is recorded as “about 2.6%”; in data set [5] (0.8 ppm of manganese added) it was 39%. Also, the “amount of sporulating cells” value in data set [5] (manganese addition of 0.1 ppm or more, growth medium rich in nutrients) is given as “increased”.
